According to US9327038B2, “Stable activatable particles as radiotherapeutic agents for the treatment of disease” (The University of North Carolina at Chapel Hill, priority 2011, dated 2016):

Experiments:
[1] = system: NSCLC A549-luc-c8 cells; assay: Biodistribution after intravenous injection in NSCLC A549-luciferase tumor-bearing mice; assay type: in vivo, athymic (nu/nu) mice; conditions: one week after i.v. injection, 300 μCi (Example 14 particles)
Protocol: NSCLC A549-luciferase tumor-bearing mice were prepared by injecting approximately one million NSCLC A549-luc-c8 cells into the lung parenchyma of athymic (nu/nu) mice. Implantation and tumor progression were monitored by detecting luciferase bioluminescence following luciferin injections. FIG. 15A.

[2] = system: SKOV-3 human ovarian tumor cells; conditions: mouse, in vivo, ip
Protocol: SKOV-3 ovarian tumor mice were prepared by injecting approximately 7×10^6 SKOV-3 human ovarian tumor cells into the peritoneal cavity of athymic (nu/nu) mice. Following a two-month incubation period, magnetic resonance imaging (MRI) was used to visualize the resultant tumors.
Biodistribution studies were performed 24 hours after injection by removing various organs from the mice and quantifying the ^166Ho content of each organ using a 2470 Wizard Automatic Gamma Counter (PerkinElmer Inc., Waltham, Mass.).

[3] = system: SKOV-3 human ovarian tumor cells; assay: Survival of SKOV-3 ovarian tumor mice after intraperitoneal treatment; assay type: in vivo, athymic (nu/nu) mice; conditions: 73-day period following implantation; i.p. injection twenty days after implantation (108.7 μCi for ^166Ho groups)
Protocol: An additional 14 SKOV-3 ovarian tumor mice received no treatment and served as the control group.
Statistical analyses were performed to compare the fraction of mice that survived over the course of the 73-day period following implantation. […] FIG. 6.

SMILES: CC(=O)C=C(C)[O][166Ho]([O]C(C)=CC(C)=O)[O]C(C)=CC(C)=O [^166Ho(AcAc)3]
- ^166Ho in tumors, percent initial dose per gram [1]: not retained
- ^166Ho in tumors, percent initial dose per gram [2]: 15.4±2.7 % ID/g
- surviving animals [3]: 66.7%
